Measured values: patent EP0638125B1, “AC[…] A PRODUCER OF RAPAMYCIN” (PFIZER INC., priority 1992, dated 1993)
≈ marks a conversion by molar mass, not a printed value.

Tests used:
Assay type in all cases: cell-based
[1] = system: mixed lymphocyte reaction (MLR); assay: mixed lymphocyte reaction (MLR), standard procedure (Dubey et al.); conditions: read-out: IC₅₀ values of MLR
Source text: (§1) The IC₅₀ values (µg/ml) of MLR and cytotoxicity for rapamycin were 7 x 10⁻³ and >3.0, respectively when tested by standard procedures for MLR (D. P. Dubey et al., Manual of Clinical Laboratory Immunology, 3rd Ed., pp. 847-858, 1986) and for cytotoxicity (T. Mosmann, J., J. Immunol. Methods, 65, 55-63, 1983).

Candida albicans = assay: antifungal activity, agar plate dilution method with paper disk; conditions: 40 µg/disk, 8 mm diameter paper disk, agar medium for neomycin assay (Difco)
Procedure: Antifungal activity was determined by an agar plate dilution method using a fungal culture, Candida albicans. The diameter of inhibition zone of rapamycin was 25 mm when tested at 40 µg/disk (8 mm diameter paper disk, Advantic) on an commercially available agar medium for neomycin assay (Difco).

[2] = cytotoxicity, standard procedure (Mosmann)
Source text: as §1

Compound CO[C@H]1C[C@@H]2CC[C@@H](C)[C@@](O)(O2)C(=O)C(=O)N2CCCC[C@H]2C(=O)O[C@H]([C@H](C)C[C@@H]2CC[C@@H](O)[C@H](OC)C2)CC(=O)[C@H](C)/C=C(\C)[C@@H](O)[C@@H](OC)C(=O)[C@H](C)C[C@H](C)/C=C/C=C/C=C/1C [rapamycin] has an IC50 [1] of 7 ng/mL (≈ 7.66 nM), a zone of inhibition at 40 µg/disc (Candida albicans) of 25 mm and a CC50 [2] greater than 3000 ng/mL.
